Measurements published in ChEMBL document CHEMBL1128553, “Synthesis of 1,4,7,8,9,10-hexahydro-9-methyl-6-nitropyrido[3,4-f]- quinoxaline-2,3-dione and related quinoxalinediones: characterization of alpha-amino-3-hydroxy-5-methyl-4-isoxazolepropionic acid (and N-methyl-D-aspartate) receptor and anticonvulsant activity” (J Med Chem, 1995).

Columns and labels:
[1] = target: T1, Glutamate receptor ionotropic, AMPA (Rattus norvegicus, UniProt P19490+P19491+P19492+P19493)
Description: Binding affinity was determined against ionotropic glutamate receptor AMPA in rat brain synaptic membranes using [3H]AMPA as radioligand

Rattus norvegicus [2] = species: Rattus norvegicus; experiment: Concentration of compound that inhibits by 50% LDH released by 24 hr application of 500 uM kainate; format: functional, organism-based
[3] = target: T1, Glutamate receptor ionotropic, AMPA; remark: listed apart in the source
Description: Inhibition of Ionotropic glutamate receptor AMPA induced depolarization in rat cortical wedge by application of 10 uM of AMPA

[4] = target: Glutamate receptor ionotropic, NMDA 1 (Rattus norvegicus, UniProt P35439); experiment: Affinity for N-methyl-D-aspartate glutamate receptor 1 in rat brain synaptic membranes, using [3H]glycine as radioligand; format: cell membranes
Rattus norvegicus [5] = species: Rattus norvegicus; experiment: Concentration of compound that inhibits by 50% depolarizations induced by 10 uM AMPA; format: functional
Rattus norvegicus [6] = species: Rattus norvegicus; experiment: Concentration of compound that inhibits by 50% LDH released by 24 hr application of 100 uM AMPA; format: functional, organism-based
[7] = target: T1, Glutamate receptor ionotropic, AMPA; remark: listed apart in the source
Description: Antagonistic activity against Ionotropic glutamate receptor AMPA induced LDH release in cultured rat cortical neurons after 24 hr 100 uM AMPA

[8] = target: Glutamate receptor ionotropic, kainate; experiment: Binding affinity for the ionotropic glutamate receptor kainate in rat brain synaptic membranes using [3H]kainate as radioligand; format: cell membranes
[9] = target: Glutamate receptor ionotropic, kainate; experiment: Antagonistic activity against Ionotropic glutamate receptor kainate induced LDH release in cultured cortical neurons in rat after 24 hr application of 500 uM of kainate; format: functional

Compound | IC50 [1] | IC50 (Rattus norvegicus [2]) | IC50 [3] | IC50 [4] | IC50 (Rattus norvegicus [5]) | IC50 (Rattus norvegicus [6]) | IC50 [7] | IC50 [8] | IC50 [9]
COC(=O)CC1c2ccc(Cl)cc2NC(=O)C1[N+](=O)[O-] (configuration not stated) | 139 µM |  |  |  |  |  |  |  | 
CCN1CCc2c([N+](=O)[O-])cc3[nH]c(=O)c(=O)[nH]c3c2C1 | 0.166 µM | 7 µM | 0.7 µM | 1.4 µM | 0.7 µM | 6 µM | 6 µM | 0.52 µM | 7 µM
CCC(C)CN1CCc2c(Br)cc3nc(O)c(O)nc3c2C1 (configuration not stated) | > 100 µM | > 30 µM | > 30 µM | > 100 µM | > 30 µM | > 30 µM | > 30 µM | 2.9 µM | > 30 µM
CCC(C)CN1CCc2c(ccc3nc(O)c(O)nc23)C1 (configuration not stated) | > 100 µM |  |  | > 100 µM |  |  |  | 48 µM | 
CCN1CCc2c(c(Br)cc3[nH]c(=O)c(=O)[nH]c23)C1 | 1.3 µM |  |  | 267 µM |  |  |  | 14 µM | 
CC(C)N1CCc2c([N+](=O)[O-])cc3[nH]c(=O)c(=O)[nH]c3c2C1 | 0.153 µM | 7 µM | 1.5 µM | 0.93 µM | 1.5 µM | 6 µM | 6 µM | 0.29 µM | 7 µM
CCN1CCc2c(c([N+](=O)[O-])cc3nc(O)c(O)nc23)C1 | 0.54 µM | 26 µM | 14 µM | 5 µM | 14 µM | 25 µM | 25 µM | 0.49 µM | 26 µM
Cc1cc2[nH]c(=O)c(=O)[nH]c2c2c1CN(C)CC2 | 17.6 µM |  |  | > 10 µM |  |  |  | 6.7 µM | 
CCC(C)N1CCc2c([N+](=O)[O-])cc3[nH]c(=O)c(=O)[nH]c3c2C1 (configuration not stated) | 0.28 µM |  | 1.6 µM | 0.93 µM | 1.6 µM | 15 µM | 15 µM | 0.85 µM | 
CCC(C)N1CCc2ccc3nc(O)c(O)nc3c2C1 (configuration not stated) | > 100 µM |  |  |  |  |  |  | 21 µM | 
COC(=O)c1cc2nc(O)c(O)nc2c2c1CN(C)CC2 | 44 µM |  |  |  |  |  |  | 22 µM | 
CN1CCc2ccc3[nH]c(=O)c(=O)[nH]c3c2C1 | 18 µM |  |  | > 100 µM |  |  |  | 71.2 µM | 
O=c1[nH]c2ccc3c(c2[nH]c1=O)NCCC3 | 2.2 µM |  |  | 1.3 µM |  |  |  | 11 µM | 
CN1CCCc2c1ccc1nc(O)c(O)nc21 | 24 µM |  |  |  |  |  |  |  | 
CN1CCc2c(ccc3[nH]c(=O)c(=O)[nH]c23)C1 | 6.5 µM |  |  | > 100 µM |  |  |  | 29.2 µM | 
CCCCCCCN1CCc2c(ccc3[nH]c(=O)c(=O)[nH]c23)C1 | > 100 µM |  |  | > 100 µM |  |  |  | 45 µM | 
CCCN1CCc2c(c([N+](=O)[O-])cc3[nH]c(=O)c(=O)[nH]c23)C1 | 2.8 µM |  |  | 20 µM |  |  |  | 1.7 µM | 
CCCN1CCc2c(ccc3[nH]c(=O)c(=O)[nH]c23)C1 | 18 µM |  |  |  |  |  |  | 23 µM | 
CCCCCCCN1CCc2c(c([N+](=O)[O-])cc3[nH]c(=O)c(=O)[nH]c23)C1 | 5.8 µM |  |  | > 10 µM |  |  |  | 79 µM | 
CCOC(=O)c1nc2cc(Br)c3c(c2nc1O)CCN(C)C3 | > 100 µM |  |  |  |  |  |  |  | 
O=c1[nH]c2cc(Br)c3c(c2[nH]c1=O)CNCC3 | 3.5 µM |  |  | 1 µM |  |  |  | 1.5 µM | 
Oc1nc2ccc3c(c2nc1O)CCNC3 | 12 µM |  |  |  |  |  |  | 17 µM | 
CN1CCc2c(c(S(=O)(=O)c3ccccc3)cc3nc(O)c(O)nc23)C1 | 96 µM |  |  |  |  |  |  | 72 µM | 
CCC(C)CN1CCc2c(c([N+](=O)[O-])cc3[nH]c(=O)c(=O)[nH]c23)C1 (configuration not stated) | 1.3 µM |  |  | > 100 µM |  |  |  | 15 µM | 
CN1CCc2c(C#N)cc3[nH]c(=O)c(=O)[nH]c3c2C1 | 1.36 µM |  |  | 1.4 µM |  |  |  | 2.4 µM | 
